Experiments:
Assay in all cases: Phenotype microarray metabolic activity
Assay type in all cases: cell-based
[1] = system: Veillonella parvula; settings: V parvula
Experimental: (§1) The extent of metabolic activity of the tested bacteria in the presence of the above-mentioned saccharides after 24 hours and 48 hours was investigated through a high throughput phenotype microarray system (PM) for microbial cells (Biolog Inc.). Each PM can contain up to 95 different biochemical compounds (e.g. saccharides) that may act as substrates for bacteria as well as one negative control, not containing the substrates. Microarray plates were used in which the different wells of each plate were pre-loaded (by the manufacturer, Biolog Inc.) with different saccharides to be tested. Each bacterial species was tested using a separate microarray plate. Thus, a single bacterial species was tested with a variety of saccharides on each particular plate. The microarrays are based on redox technology, using cell respiration as a universal reporter. Active cell respiration results in the reduction of a tetrazolium dye and in the formation of a strong color—for example, when using the tetrazolium dye “Biolog Redox Dye Mix D”, the color changes from transparent/colorless to purple when the dye is reduced. The observation of this color change indicates which of the substrates improve the metabolic activity and health of the cells.
(§2) Each bacterial species was collected from blood agar plates (incubated for 48 hours anaerobically at 37° C.) and transferred to an IF-0 Base inoculation fluid (Biolog Inc.), which is a nutritionally poor medium. The resulting cell suspension was adjusted to a transmittance of 42% (relative to the transmittance of the base inoculation fluid with no bacterial species present) at 492 nm using a BioRad SmartSpec 3000 Photometer (the adjustment being effected by adding either further inoculation fluid or further bacteria until the transmittance of 42% was achieved). A 1:5 dilution of this suspension was prepared by mixing 3 mL of the 42% transmittance cell suspension with 15 mL of an inoculation fluid (which inoculation fluid was formed by mixing 11.6 mL sterile water, 62.5 mL IF-0 base inoculation fluid and 0.9 mL of the tetrazolium dye “Biolog Redox Dye mix D”), resulting in a final cell density which was equal to 85% transmittance using a BioRad SmartSpec 3000 Photometer. For each of the saccharides tested, the microarray plate (obtained from the supplier (Biolog Inc.) with saccharides already present in the relevant wells in powder form) was directly inoculated with 100 μL/well of this 85% transmittance cell suspension.
(§3) All plates were incubated in an anaerobic atmosphere at 37° C. Color changes were measured spectrophotometrically at 492 nm (Thermo Scientific Multiskan Ascent) at 24 hrs and 48 hrs using the same plate at both time points. […] After 24 hrs and 48 hrs under continuous shaking in a Multiscan microplate reader, the optical density (OD) of the synthetic medium at 24 hours and 48 hours was measured (using the microplate reader) at a wavelength of 492 nm for each combination of bacterium/saccharide, and for each of their respective controls (i.e. which contained the particular bacterium but no saccharide).
(§4) The experiment was carried out three times for each combination of bacterium with saccharide, with each repeat being carried out on a different day (thus providing three biological replicas). The controls were also carried out three times, as above. The values shown are the average (mean) of the three single values obtained (as detailed above) for each combination of bacterium with saccharide, at 24 hrs and at 48 hrs.

[2] = system: Streptococcus mutans; settings: for metabolic activity: OD 492 nm divided by OD of control (control = 1): S mutans
Experimental: as §1, §2, §3, §4

[3] = system: Prevotella intermedia; settings: P intermedia
Experimental: as §1, §2, §3, §4

[4] = system: Streptococcus sobrinus; settings: S sobrinus
Experimental: as §1, §2, §3, §4

[5] = system: Porphyromonas gingivalis; settings: P gingivalis
Experimental: as §1, §2, §3, §4

[6] = system: Streptococcus salivarius; settings: for metabolic activity: OD 492 nm divided by OD of control (control = 1): S salivarius
Experimental: as §1, §2, §3, §4

[7] = system: Streptococcus gordonii; settings: S gordonii
Experimental: as §1, §2, §3, §4

[8] = system: Actinomyces viscosus; settings: for metabolic activity: OD 492 nm divided by OD of control (control = 1): A viscosus
Experimental: as §1, §2, §3, §4

[9] = system: Tannerella forsythia; settings: T forsythia
Experimental: as §1, §2, §3, §4

[10] = system: Streptococcus mitis; settings: S mitis
Experimental: as §1, §2, §3, §4

[11] = system: Fusobacterium nucleatum; settings: F nucleatum
Experimental: as §1, §2, §3, §4

[12] = system: Capnocytophaga sputigena; settings: C sputigena
Experimental: as §1, §2, §3, §4

[13] = system: Actinomyces naeslundii; settings: for metabolic activity: OD 492 nm divided by OD of control (control = 1): A naeslundii
Experimental: as §1, §2, §3, §4

[14] = system: S sanguinis
Experimental: as §1, §2, §3, §4

[15] = system: Aggregatibacter actinomycetemcomitans; settings: A actinomycetemcomitans
Experimental: as §1, §2, §3, §4

Row | SMILES | metabolic activity: OD 492 nm divided by OD of control (control = 1) ([1]; 24 hrs) | metabolic activity: OD 492 nm divided by OD of control (control = 1) ([1]; 48 hrs) | metabolic activity: OD 492 nm divided by OD of control (control = 1) ([2]; 24 hrs) | metabolic activity: OD 492 nm divided by OD of control (control = 1) ([2]; 48 hrs) | metabolic activity: OD 492 nm divided by OD of control (control = 1) ([3]; 24 hrs) | metabolic activity: OD 492 nm divided by OD of control (control = 1) ([3]; 48 hrs) | metabolic activity: OD 492 nm divided by OD of control (control = 1) ([4]; 24 hrs) | metabolic activity: OD 492 nm divided by OD of control (control = 1) ([4]; 48 hrs) | metabolic activity: OD 492 nm divided by OD of control (control = 1) ([5]; 24 hrs) | metabolic activity: OD 492 nm divided by OD of control (control = 1) ([5]; 48 hrs) | metabolic activity: OD 492 nm divided by OD of control (control = 1) ([6]; 24 hrs) | metabolic activity: OD 492 nm divided by OD of control (control = 1) ([6]; 48 hrs) | metabolic activity: OD 492 nm divided by OD of control (control = 1) ([7]; 24 hrs) | metabolic activity: OD 492 nm divided by OD of control (control = 1) ([7]; 48 hrs) | metabolic activity: OD 492 nm divided by OD of control (control = 1) ([8]; 24 hrs) | metabolic activity: OD 492 nm divided by OD of control (control = 1) ([8]; 48 hrs) | metabolic activity: OD 492 nm divided by OD of control (control = 1) ([9]; 24 hrs) | metabolic activity: OD 492 nm divided by OD of control (control = 1) ([9]; 48 hrs) | metabolic activity: OD 492 nm divided by OD of control (control = 1) ([10]; 24 hrs) | metabolic activity: OD 492 nm divided by OD of control (control = 1) ([10]; 48 hrs) | also measured
1 | CC(=O)N[C@H](C=O)[C@@H](O)[C@H](O)[C@H](O)CO [N-acetyl-D-mannosamine, 2-acetamido-2-deoxy-D-mannose] | 0.9189 | 0.9284 | 1.0429 | 1.0176 | 0.9878 | 0.9805 | 1.1993 | 1.1453 | 0.7968 | 0.8296 | 1.0589 | 0.9795 | 1.6021 | 2.3739 | 0.9778 | 1.0151 | 0.9666 | 0.9443 | 3.4298 | 3.0447 | metabolic activity: OD 492 nm divided by OD of control (control = 1) ([11]; 24 hrs): 1.0897; metabolic activity: OD 492 nm divided by OD of control (control = 1) ([11]; 48 hrs): 1.0886; metabolic activity: OD 492 nm divided by OD of control (control = 1) ([12]; 24 hrs): 1.1116; metabolic activity: OD 492 nm divided by OD of control (control = 1) ([12]; 48 hrs): 1.0780; metabolic activity: OD 492 nm divided by OD of control (control = 1) ([13]; 24 hrs): 1.4397; metabolic activity: OD 492 nm divided by OD of control (control = 1) ([13]; 48 hrs): 1.7022; metabolic activity: OD 492 nm divided by OD of control (control = 1) ([14]; 24 hrs): 2.9770; metabolic activity: OD 492 nm divided by OD of control (control = 1) ([14]; 48 hrs): 3.0358; metabolic activity: OD 492 nm divided by OD of control (control = 1) ([15]; 24 hrs): 1.7369; metabolic activity: OD 492 nm divided by OD of control (control = 1) ([15]; 48 hrs): 2.1360
2 | OC[C@@H](O)[C@@H](O[C@H]1O[C@H](CO)[C@H](O)[C@H](O)[C@H]1O)[C@H](O)[C@@H](O)CO [D-Lactitol, 4-O-α-D-galactopyranosyl-D-glucitol] | 0.8079 | 0.6786 | 2.0160 | 2.7520 | 0.9834 | 0.9481 | 1.4178 | 1.3908 | 0.8216 | 1.0092 | 4.7396 | 5.1101 | 1.5368 | 1.7842 | 4.2553 | 4.9364 | 1.0703 | 1.1172 | 1.0047 | 0.9006 | increase in metabolic activity of S. mutans, in words ([2]; 24 hrs): borderline increase; increase in metabolic activity of S. salivarius, in words ([6]; 24 hrs): marked increase; increase in metabolic activity of A. viscosus, in words ([8]; 24 hrs): marked increase; metabolic activity: OD 492 nm divided by OD of control (control = 1) ([11]; 24 hrs): 0.9115; metabolic activity: OD 492 nm divided by OD of control (control = 1) ([11]; 48 hrs): 0.7913; metabolic activity: OD 492 nm divided by OD of control (control = 1) ([12]; 24 hrs): 0.9032; metabolic activity: OD 492 nm divided by OD of control (control = 1) ([12]; 48 hrs): 1.0097; increase in metabolic activity of A. naeslundii, in words ([13]; 24 hrs): marked increase; metabolic activity: OD 492 nm divided by OD of control (control = 1) ([13]; 24 hrs): 2.4399; metabolic activity: OD 492 nm divided by OD of control (control = 1) ([13]; 48 hrs): 3.3992; metabolic activity: OD 492 nm divided by OD of control (control = 1) ([14]; 24 hrs): 1.0364; metabolic activity: OD 492 nm divided by OD of control (control = 1) ([14]; 48 hrs): 1.0188; metabolic activity: OD 492 nm divided by OD of control (control = 1) ([15]; 24 hrs): 0.8916; metabolic activity: OD 492 nm divided by OD of control (control = 1) ([15]; 48 hrs): 0.8237
